This series can be described thus: IV and PO pharmacokinetics of CETP inhibitor compounds in male Sprague Dawley rats. It counts as in vivo. Conditions: rat, 3 mg/kg PO, 1 mg/kg IV. As to the method: This following is to determine the pharmacokinetic parameters, including oral bioavailability, following a single 1 mg/kg intravenous bolus or a 3 mg/kg oral dose administration of the compound to male Sprague Dawley rats (n=4) in a crossover study design. The intravenous vehicle is 20% solutol microemulsion/80% deionized water. The oral vehicle is povidone USP 10%/SLS 0.5%/QS deionized water. In the intravenous arm, blood samples are collected at 0.08, 0.25, 0.5, 1, 2, 5, 8, 12, and 24 hours post-dose. In the oral arm, blood samples are collected at 0, 0.25, 0.5, 1, 2, 5, 8, 12, and 24 hours post-dose. Plasma is obtained by centrifugation, placed on ice, and frozen until samples are shipped on dry ice to Bioanalytical Systems, Inc. (BASi; West Lafayette, Ind.) for bioanalytical analysis. Concentrations of BCCA are determined by LC/MS/MS and pharmacokinetic parameters are calculated using a validated software program (Watson, Version 7.1). […]

As for `Cc1cc2c(c(C)c1C(F)(F)F)N(CC1CCC(CC(=O)O)CC1)CCC[C@@H]2N(Cc1cc(C(F)(F)F)cc(C(F)(F)F)c1)c1nnn(C)n1` (stereo partly drawn) [compound 15, (S)-(4-{5-[(3,5-Bis-trifluoromethyl-benzyl)-(2-methyl-2H-tetrazol-5-yl)-amino]-7,9-dimethyl-8-trifluoromethyl-2,3,4,5-tetrahydro-benzo[b]azepin-1-ylmethyl}-cyclohexyl)-acetic acid], the “F % (AUC Extrap.) ± sd” value is 8 ± 3%.

Source of the values: patent publication US8329688B2, “Trans-4-[[(5S)-5-[[[3,5-bis(trifluoromethyl)phenyl]methyl](2-methyl-2H-tetrazol-5-yl)amino]-2,3,4,5-tetrahydro-7,9-dimethyl-1H-1-benzazepin-1-yl]methyl]-cyclohexanecarboxylic acid” (Eli Lilly and Company, priority 2009, dated 2012).
